Results published in PubChem BioAssay (NCI).
Values joined by “and” are separate entries in the source; they are usually repeats but may differ in a detail not shown here. Equal values may be shown once.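 Test compounds were applied to cells in 96-well plates for 48 hours at 5 doses. At the GI50, growth is halved. TGI marks complete inhibition of growth.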

Assays:
Assay in all cases: growth of human tumour cells (NCI), 48 h
[1] = system: DLD-1 colon
[2] = system: MALME-3M melanoma
[3] = system: HCT-116 colon
[4] = system: HOP-62 NSCLC
[5] = system: CAKI-1 renal
[6] = system: U251 CNS
[7] = system: LXFL 529 NSCLC
[8] = system: RXF-631 renal
[9] = system: SNB-78 CNS
[10] = system: M19-MEL melanoma
[11] = system: K-562 leukemia
[12] = system: DMS 114 small cell lung
[13] = system: KM20L2 colon
[14] = system: COLO 205 colon
[15] = system: HOP-18 NSCLC
[16] = system: DMS 273 small cell lung

Structure (SMILES)	TGI [1]	TGI [2]	TGI [3]	TGI [4]	TGI [5]	TGI [6]	TGI [7]	TGI [8] [µM]	TGI [9]	TGI [10]	TGI [11] [µM]	TGI [12] [µM]	TGI [13]	TGI [14]	TGI [15]	TGI [16]	GI50 [1]	GI50 [6]	GI50 [11] [µM]	GI50 [13]
COc1cc([C@@H]2c3cc4c(cc3[C@@H](NCc3ccccc3F)C3COC(=O)[C@@H]32)OCO4)cc(OC)c1O (stereo not given in full)	> 100 µM	28.3 µM	21.9 µM	7.74 µM	44.2 µM	9.02 µM	88.2 µM	19.8	> 100 µM	23.4 µM	35.4	28.3	8.65 µM	77.4 µM	> 100 µM	21.2 µM	–	–	–	–
CC(=O)NC(CCCNC(=O)N(C)N=O)C(=O)NCc1ccccc1 (stereo not given)	> 100 µM	> 100 µM	> 100 µM	> 100 µM	> 100 µM	> 100 µM	> 100 µM	> 100	> 100 µM	> 100 µM	> 100	> 100	> 100 µM	> 100 µM	–	> 100 µM	–	–	–	–
N=S(c1ccccc1[N+](=O)[O-])c1ccccc1[N+](=O)[O-]	4.15 µM and 2.08 µM	6.1 µM and 7.33 µM	3.28 µM and 3.58 µM	8.51 µM and 10.8 µM	4.19 µM and 12 µM	27.7 µM and 29.5 µM	7.83 µM and 5.92 µM	3.43	9.2 µM and 8.28 µM	12.3 µM and 6.84 µM	7.29	–	11.2 µM and 27.4 µM	2.77 µM and 4.12 µM	19.5 µM and 15.8 µM	5.15 µM and 7.87 µM	1.81 µM and 0.636 µM	14.5 µM and 16 µM	2.19	5.21 µM and 12.9 µM
Cc1ccc(C(=O)NC2CCCCC2)cc1N=NN(C)C	> 100 µM	–	> 100 µM	> 100 µM	> 100 µM	> 100 µM	> 100 µM	–	> 100 µM	> 100 µM	–	–	> 100 µM	–	–	> 100 µM	–	–	–	–
COC(=O)/C=C1\CCC2[C@@H](C(=O)CC3[C@]2(C)CCC[C@@]3(C)C(=O)OC)C1C (stereo not given in full)	> 100 µM	54.1 µM	48.3 µM	69.7 µM	> 100 µM	> 100 µM	23.7 µM	63.1	> 100 µM	39.7 µM	41.3	37.2	80.3 µM	33 µM	79.4 µM	52.4 µM	–	–	–	–
Cc1ccc(NC(=O)C2C3C=CC(O3)C2C(=O)O)cc1 (stereo not given)	> 100 µM	> 100 µM	> 100 µM	> 100 µM	–	> 100 µM	> 100 µM	–	> 100 µM	> 100 µM	> 100	> 100	> 100 µM	> 100 µM	> 100 µM	> 100 µM	–	–	–	–
CCc1cccc(C(C)C)c1NC(=O)/C(=N\NC(N)=O)C(C(=O)OC)c1cnc2ccccc2n1 (stereo not given)	> 100 µM	76.4 µM	86.6 µM	> 100 µM	> 100 µM	> 100 µM	> 100 µM	> 100	> 100 µM	32.4 µM	> 100	54.2	> 100 µM	49.6 µM	98.2 µM	> 100 µM	–	–	–	–
N#C/C(c1nc2ccccc2[nH]1)=c1\s/c(=C/c2ccccc2)c(=O)n1-c1ccccc1	> 100 µM	> 100 µM	> 100 µM	> 100 µM	> 100 µM	> 100 µM	> 100 µM	–	–	> 100 µM	> 100	> 100	> 100 µM	> 100 µM	–	> 100 µM	–	–	–	–
Cc1cc(Cl)ccc1NC(=O)/C(=N\NC(C)(C)C)C(C#N)c1nc(-c2ccc([N+](=O)[O-])cc2)cs1 (stereo not given)	> 100 µM	> 100 µM	> 100 µM	> 100 µM	> 100 µM	> 100 µM	> 100 µM	> 100	> 100 µM	> 100 µM	> 100	> 100	> 100 µM	–	> 100 µM	> 100 µM	–	–	–	–
N#CC(NNC(=O)Cc1ccccc1)c1ccc([N+](=O)[O-])cc1 (stereo not given)	> 100 µM	> 100 µM	> 100 µM	> 100 µM	–	> 100 µM	> 100 µM	–	> 100 µM	> 100 µM	> 100	–	–	> 100 µM	> 100 µM	> 100 µM	–	–	–	–
CC(=O)NC(CCCCNCc1ccccc1)C(=O)NCc1ccccc1 (stereo not given)	> 100 µM	> 100 µM	> 100 µM	> 100 µM	> 100 µM	> 100 µM	> 100 µM	–	> 100 µM	> 100 µM	> 100	> 100	> 100 µM	> 100 µM	–	> 100 µM	–	–	–	–
O=C1C(Cl)C(c2ccccc2Cl)N1n1cnc2ccccc2c1=O (stereo not given)	> 100 µM	> 100 µM	> 100 µM	> 100 µM	> 100 µM	> 100 µM	> 100 µM	–	> 100 µM	> 100 µM	> 100	> 100	> 100 µM	> 100 µM	–	> 100 µM	–	–	–	–
O=C1/C(=C/c2ccccc2Cl)COc2ccc(Br)cc21	> 100 µM	> 100 µM	> 100 µM	> 100 µM	–	> 100 µM	> 100 µM	–	> 100 µM	> 100 µM	31.7	> 100	> 100 µM	> 100 µM	> 100 µM	> 100 µM	–	–	–	–
CC(C)C1=Cc2ccc3c(c2C(=O)C1=O)CCCC3	3.31 µM	5.78 µM	5.39 µM	42.1 µM	2.15 µM	42.4 µM	2.52 µM	25.1	11.9 µM	8.59 µM	14.1	3.61	42.7 µM	27.1 µM	8.96 µM	13.6 µM	–	–	–	–
CCCCCCCCCCCCCCCCc1c(C(=O)OC)nc(NC#N)[nH]c1=O	> 25 µM	> 25 µM	> 25 µM	> 25 µM	–	> 25 µM	> 25 µM	> 25	> 25 µM	> 25 µM	> 25	> 25	> 25 µM	> 25 µM	> 25 µM	–	–	–	–	–
CCOC(=O)C(C)NC(=O)NC12CC3CC(CC(F)(C3)C1)C2 (stereo not given)	> 100 µM	> 100 µM	> 100 µM	> 100 µM	–	> 100 µM	> 100 µM	–	83.3 µM	> 100 µM	> 100	> 100	> 100 µM	> 100 µM	–	> 100 µM	–	–	–	–
O=S1Nc2cccc(C(F)(F)F)c2S1 (stereo not given)	> 100 µM	> 100 µM	> 100 µM	> 100 µM	> 100 µM	> 100 µM	> 100 µM	–	> 100 µM	> 100 µM	> 100	83.2	> 100 µM	35.8 µM	> 100 µM	> 100 µM	–	–	–	–
CC1OC(n2cc(F)c(=O)[nH]c2=O)CCC1=O (stereo not given)	> 100 µM	> 100 µM	> 100 µM	> 100 µM	> 100 µM	> 100 µM	> 100 µM	> 100	> 100 µM	> 100 µM	> 100	> 100	> 100 µM	> 100 µM	> 100 µM	> 100 µM	–	–	–	–
CCOc1ccc(N(CC(=O)N2CC(=O)Nc3cc(C)c(C)cc32)C(C)=O)cc1	> 100 µM	> 100 µM	> 100 µM	> 100 µM	> 100 µM	> 100 µM	> 100 µM	–	> 100 µM	> 100 µM	> 100	–	> 100 µM	> 100 µM	> 100 µM	> 100 µM	–	–	–	–
CC(=O)OCC12CC(CC1OC(C)=O)c1ccccc12 (stereo not given)	–	> 100 µM	> 100 µM	> 100 µM	> 100 µM	> 100 µM	> 100 µM	> 100	–	> 100 µM	> 100	> 100	> 100 µM	> 100 µM	> 100 µM	> 100 µM	–	–	–	–
CC(C)N(C(=O)C12C3C4C5C3C1(C(=O)O)C5C42)C(C)C (stereo not given)	> 100 µM	> 100 µM	> 100 µM	> 100 µM	> 100 µM	> 100 µM	> 100 µM	> 100	> 100 µM	> 100 µM	> 100	> 100	> 100 µM	> 100 µM	–	> 100 µM	–	–	–	–
O=C1CCC2(c3ccc(Cl)cc3)Nc3ccccc3N12 (stereo not given)	> 100 µM	> 100 µM	> 100 µM	> 100 µM	–	> 100 µM	> 100 µM	> 100	> 100 µM	> 100 µM	> 100	> 100	> 100 µM	> 100 µM	> 100 µM	–	–	–	–	–
O=C(CCN1CCCCC1)Nc1ccc2c(c1)C(=O)c1ccc(NC(=O)CCN3CCCCC3)cc1C2=O	15 µM	25.5 µM	3.2 µM	6.67 µM	27.5 µM	9.97 µM	4.64 µM	–	29.8 µM	> 100 µM	7.64	34.7	33.2 µM	24 µM	30.7 µM	3.87 µM	–	–	–	–
O=C(O)c1cnc2c(ccc3[nH]cccc32)c1=O	> 100 µM	> 100 µM	> 100 µM	> 100 µM	–	> 100 µM	> 100 µM	–	> 100 µM	> 100 µM	> 100	> 100	> 100 µM	> 100 µM	> 100 µM	> 100 µM	–	–	–	–
CC1(O)CC2C(CC1SC1CC3C(CC1(C)O)C3(C)C)C2(C)C (stereo not given)	> 100 µM	> 100 µM	> 100 µM	–	–	> 100 µM	> 100 µM	–	> 100 µM	63.4 µM	> 100	> 100	–	> 100 µM	> 100 µM	> 100 µM	–	–	–	–
